Key:
[1] = Cytotoxicity toward Neuro-2a cells (MTT assay); format: cell-based, mouse; conditions: mouse, Neuro-2a neuroblastoma cells, 24 h
Description: (§1) The cells of mouse neuroblastoma cell line Neuro-2a (ATCC® CCL-131™; American Type Culture Collection, Manassas, VA, USA) were cultured in Dulbecco’s modified Eagle’s medium (DMEM) containing 10% fetal bovine serum (Biolot, St. Petersburg, Russia) and 1% penicillin/streptomycin (Biolot, St. Petersburg, Russia) at 37 °C in a humidified atmosphere with 5% (v/v) CO2. Initially, cells were incubated in cultural flasks until sub-confluent (~80%). For testing, Neuro-2a cells were seeded in 96- or 6-well plates and experiments were started after 24 h.
(§2) The cells (1 × 10^4 cells/well of a 96-well plate) were incubated with different concentrations of studied compounds during 24 h. After that, cell viability was determined by the MTT (3-(4,5-dimethylthiazol-2-yl)-2,5-diphenyltetrazolium bromide) method according to the manufacturer’s instructions (Sigma-Aldrich, St. Louis, MO, USA). Absorbance of the converted formazan was measured using a Multiskan FC microplate photometer (Thermo Scientific, Waltham, MA, USA) at λ = 570 nm. The results were presented as percent of control data, and concentration of cell viability inhibition on 50% (IC50) was calculated.

[2] = tested on: Neuro-2a cells; test: Cytotoxicity toward Neuro-2a cells (MTT assay); format: cell-based, mouse; conditions: Neuro-2a cells, 100 μM, MTT assay
Description: as §1, §2

[3] = DPPH radical scavenging assay (cell-free); conditions: 30 min, MeOH
Description: The 2,2-diphenyl-1-picryl-hydrazyl-hydrate (DPPH) radical scavenging activity was tested as described previously. The compounds were dissolved in MeOH, and the solutions (120 µL) were dispensed into wells of a 96-well microplate. The DPPH (Sigma-Aldrich, Steinheim, Germany) was dissolved in MeOH at a concentration of 7.5 × 10^−3 M and the solution (30 µL) was added to each well. The concentrations of tested compounds in the mixtures were 10 and 100 µM. Ascorbic acid was used as a positive control. The mixtures were shaken and left for 30 min. The absorbance of the resulting solutions was measured at λ = 520 nm with a MultiscanFC plate reader (Thermo Scientific, Waltham, MA, USA). The concentration scavenging 50% of the DPPH radical (EC50) was calculated for each compound.

[4] = tested on: PQ-treated Neuro-2a cells; test: Propidium iodide straining of PQ-treated Neuro-2a cells (membrane permeability); format: cell-based, mouse; conditions: PQ-treated cells, 24 h
Description: The cells (1 × 10^4 cells/well) were seeded in black 96-well plates before testing. After incubation of the cells with compounds and PQ during 24 h, PI solution (10 μg/mL) was added to each well and the plate was incubated in the dark at 37 °C for 10 min. Cells were washed with phosphate buffer saline (PBS) (BioloT, St.Peterburg, Russia) and fluorescence was measured with a Fluoroskan Ascent plate reader (Thermo Labsystems, Helsinki, Finland) at […]. All manipulations with fluorescent probes were carried out in a darkened room. The results were presented as percent of positive control data.

[5] = tested on: ROS level in PQ-treated Neuro-2a cells; test: ROS level analysis in PQ-treated Neuro-2a cells (H2DCFDA); format: cell-based, mouse; conditions: tested at 1 and 10 μM, PQ 500 µM 1 h
Description: The cells (1 × 10^4 cells/well of a 96-well plate) were incubated with compound solutions (1 and 10 µM) during 1 h. Then, PQ was added to cell suspension to a resulting concentration of 500 µM for incubation during 1 h. Cells incubated without PQ and compounds and with PQ alone were used as positive and negative controls, respectively. The 20 µL of 2,7-dichlorodihydrofluorescein diacetate solution (H2DCFDA, Molecular Probes, Eugene, OR, USA) was added to each well (10 µM, final concentration) and the plate was incubated for an additional 10 min at 37 °C. The intensity of dichlorofluorescin fluorescence was measured with a PHERAstar FS plate reader (BMG Labtech, Ortenberg, Germany) at λex = 485 nm and λem = 518 nm. The data were processed by MARS Data Analysis v. 3.01R2 (BMG Labtech, Ortenberg, Germany). The results were presented as percent of positive control data.

[6] = tested on: mitochondrial membrane potential in PQ-treated Neuro-2a cells; test: Mitochondrial membrane potential detection (TMRM) in PQ-treated Neuro-2a cells; format: cell-based, mouse; conditions: compound 10 μM, PQ 500 µM 1 h
Description: The cells (1 × 10^4 cells/well of a 96-well plate) were incubated with compound solutions (1 and 10 µM) during 1 h. Then, PQ was added to cell suspension to a resulting concentration of 500 µM for incubation during 1 h. Cells incubated without PQ and compounds and with PQ alone were used as positive and negative controls, respectively. The tetramethylrhodamine methyl (TMRM) (Sigma-Aldrich, St. Louis, MO, USA) solution at 500 nM was added in each well and cells were incubated for 30 min at 37 °C. The intensity of fluorescence was measured with a PHERAstar FS plate reader (BMG Labtech, Ortenberg, Germany) at λex = 540 nm and λem = 590 nm. The data were processed by MARS Data Analysis v. 3.01R2 (BMG Labtech, Ortenberg, Germany). The results were presented as percent of positive control data.

[7] = tested on: Hsp70 level in Neuro-2a cells; test: Hsp70 level analysis by Western blot in Neuro-2a cells; format: cell-based, mouse; conditions: compound 10 µM 1 h, then PQ 500 µM 24 h
Description: The Hsp70 expression was detected by Western blot analysis. Cell suspensions (1.6 × 10^5 cells/well of a 6-well plate) were seeded and treated with studied compounds at a concentration of 10 µM for 1 h. After that, PQ (500 µM) was added and cells were incubated during 24 h. Cells incubated without PQ and compounds and with PQ alone were used as positive and negative controls, respectively. Cells were washed by cold PBS (BioloT, Russia) twice and lysed by radioimmunoprecipitation assay (RIPA) buffer (BioloT, St. Peterburg, Russia). The amount of proteins was measured by the Bradford method and equal samples (25 µg) were prepared using sample buffer. Proteins were separated with sodium dodecyl sulphate (SDS) electrophoresis in 10% polyacrylamide gel. The electrophoretically separated proteins were transferred onto the polyvinylidene difluoride (PVDF) membrane Whatman (Sigma-Aldrich, St. Louis, MO, USA) using a semi-dry transfer apparatus (Helicon, Moscow, Russia). […] The peroxidase reaction was visualized by an enhanced chemiluminescence (ECL) kit according to the instructions of the manufacturer (Sigma-Aldrich, St. Louis, MO, USA) using the VersaDoc Imaging System (Bio-Rad, Hercules, CA, USA).

[8] = tested on: PQ-treated Neuro-2a cells; test: Neurite outgrowth estimation in PQ-treated Neuro-2a cells; format: cell-based, mouse
Description: Neurite outgrowth was studied as described by Li et al.. Neuro-2a cells were seeded in 6-well plates (1.6 × 10^5 cells/well) in DMEM medium containing 10% fetal bovine serum (Biolot, St. Peterburg, Russia) and 1% penicillin/streptomycin (Invitrogen, Carlsbad, CA, USA). The next day, this growth media was changed with serum-free DMEM media containing 1% penicillin/streptomycin, and cells were treated with studied compounds at a concentration of 10 µM for 1 h. After that, PQ (500 µM) was added and cells were incubated during 24 h. Cells incubated without PQ and compounds and with PQ alone were used as positive and negative controls, respectively.
For each well, approximately 10 images were acquired randomly by scanning the wells from left to right and top to bottom using the AxioImager A1 microscope (CarlZeiss, Oberkochen, Germany). A total of ten random fields (near 350 cells in each) for each experimental group were scored for neurite outgrowth. The number of neurite-bearing cells and lengths of the individual neurites for each cell were measured using the AxioVision 4.7.1 software (CarlZeiss, Oberkochen, Germany). Length was defined as the straight-line distance from the tip of the neurite to the junction between the cell body and neurite base. In the case of branched neurites, the length of the longest branch was measured from the tip of the neurite to the cell body. In each experimental group, the average length of neurites was calculated, as well as the average number of neurites per one cell.

[9] = tested on: histamine release induced by anti-IgE; conditions: cited from earlier work
[10] = cells incubated with compound 10 µM and PQ 500 µM
[11] = compound 10 µM 1 h, then PQ 500 µM 24 h

CC(=O)O[C@H]1CC[C@]2(C)C3=C(CC[C@H]2C1(C)C)[C@]1(C(=O)O)CC[C@H]([C@H](C)CCC=C(C)C)[C@@]1(C)CC3 [Compound 5, acetylpenasterol]
activity at 24 h, 10 µM ([1]; Neuro-2a cell viability, 10 μM, read-out: Cytotoxicity (MTT Assay) % of Control at 10 μM): 97.9 ± 3.3%
IC50 at 24 h ([1]; Neuro-2a cells): > 100 µM
death of cells [2]: 45.6%
EC50 [3]: > 100 µM
decrease of fluorescence of PI-straining cells ([4]; compound 1 μM pre-incubation): 20%
decrease of fluorescence of PI-straining cells ([4]; compound 10 μM pre-incubation): 24%
concentrations at which ROS content in PQ-treated cells was reduced [5]: effective at concentrations of 1 and 10 μM
increase of intensity of TMRM fluorescence (PQ-induced mitochondrial dysfunction diminished) [6]: 35%
effect on Hsp70 level in PQ-treated cells [7]: raised it to the initial level
proportion of neurites with a length of 0–4.99 µm in the total number [8, 10]: 6.4%
proportion of neurites with a length of 10.00–14.99 µm in the total number [8, 10]: 20.7%
increase in the average number of neurites per cell [8, 11]: 20%
increase of neurites-bearing cell amount compared to PQ-treated control [8, 11]: 144%
inhibition of histamine release induced by anti-IgE [9]: inhibitors of histamine release
